Assay [1] addresses T1, 5-HT1A receptor (Rattus norvegicus, UniProt P19327).
T1 construct: syndrome in the rat; from tissue; host or cells: living rat (endogenous receptor of the central nervous system)
T1 sequence (P19327 1-422): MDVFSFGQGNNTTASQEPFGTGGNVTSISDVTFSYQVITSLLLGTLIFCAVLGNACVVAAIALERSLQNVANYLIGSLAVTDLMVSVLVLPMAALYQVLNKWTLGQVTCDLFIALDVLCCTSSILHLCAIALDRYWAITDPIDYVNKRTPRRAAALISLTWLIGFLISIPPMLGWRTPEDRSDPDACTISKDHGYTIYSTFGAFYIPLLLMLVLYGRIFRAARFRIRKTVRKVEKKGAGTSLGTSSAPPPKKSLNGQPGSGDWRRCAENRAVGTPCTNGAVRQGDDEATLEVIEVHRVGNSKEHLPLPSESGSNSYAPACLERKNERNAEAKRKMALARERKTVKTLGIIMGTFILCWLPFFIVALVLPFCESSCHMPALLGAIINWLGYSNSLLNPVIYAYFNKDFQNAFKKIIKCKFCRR
The experiment in a line: 5-HT1A receptor binding activity in rat hippocampal membrane homogenate. Conditions: method of Alexander and Wood. How it is done:
The compounds of the invention are tested for 5-HT1A receptor binding activity in rat hippocampal membrane homogenate by the method of B S Alexander and M D Wood, J Pharm Pharmacol, 1988, 40, 888-891.

Assay [2] deals with T1, 5-HT1A receptor. In words: antagonism of 8-OH DPAT syndrome in the rat (5-HT1A receptor antagonism activity). The assay is classed as in vivo. The method, then:
The compounds are tested for 5-HT1A receptor antagonism activity in a test involving the antagonism of 8-hydroxy-2-(di-n-propylamino)-tetralin (8-OH DPAT) syndrome in the rat. (R,S)-1-(2-Methoxyphenyl)-4-[2-(IH-imidazol-1-yl) -2-(phenyl)ethylpiperazine had MED of 1 mg/kg subcut and 10 mg/kg p.o when tested in this procedure.

Drawing on patent publication US5177078A, “Piperazine derivatives” (John Wyeth & Brother Limited, priority 1990, dated 1993), this text covers IC50 and MED for one compound.

A word on the IC50: it is the concentration needed to halve the response being measured. A higher IC50 goes with weaker potency.

`COc1ccccc1N1CCN(CC(c2ccccc2)n2ccnc2)CC1` (stereo not drawn) [Example 1, 1-(2-Methoxyphenyl)-4-[2-(1H-imidazol-1-yl)-2-(phenyl)ethyl]piperazine]: at 5-HT1A receptor [1], the IC50 was determined as 15.8 nM. The MED at 5-HT1A receptor [2] (p.o) turned out to be 10 mg/kg; on 5-HT1A receptor [2] (subcut) it was 1 mg/kg.
